Values quoted from earlier work as cited in patent publication US20170007618A1, “SEROTONIN 2C RECEPTOR ANTAGONISTS TO PREVENT AND TREAT STRESS-RELATED TRAUMA DISORDERS” (Massachusetts Institute of Technology, priority 2015, published 2017).
Counter-ions that a name gives are not always drawn.

What was measured:
5-HT2A receptors = 5-HT2A receptors (Homo sapiens, UniProt P28223); settings: 5-HT2C versus 5-HT2A
5-HT2B receptors = 5-HT2B receptors (Homo sapiens, UniProt P41595); settings: 5-HT2C versus 5-HT2B
Sequence of 5-HT2B receptors (P41595 whole entry): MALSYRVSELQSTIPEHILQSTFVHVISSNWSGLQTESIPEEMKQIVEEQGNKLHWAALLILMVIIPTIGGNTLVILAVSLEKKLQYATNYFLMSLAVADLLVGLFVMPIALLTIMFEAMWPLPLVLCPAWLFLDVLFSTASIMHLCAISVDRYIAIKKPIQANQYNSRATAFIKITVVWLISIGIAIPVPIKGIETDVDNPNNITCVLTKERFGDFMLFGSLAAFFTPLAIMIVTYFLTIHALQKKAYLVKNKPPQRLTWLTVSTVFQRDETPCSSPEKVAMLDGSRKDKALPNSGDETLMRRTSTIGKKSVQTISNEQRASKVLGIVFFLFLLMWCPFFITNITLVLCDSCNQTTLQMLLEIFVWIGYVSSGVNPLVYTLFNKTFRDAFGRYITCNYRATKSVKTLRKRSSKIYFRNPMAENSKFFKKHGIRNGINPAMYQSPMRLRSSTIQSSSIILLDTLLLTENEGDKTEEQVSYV

[1] = target: T1, cloned human 5-HT2C receptor (Homo sapiens, UniProt P28335)
T1 sequence (P28335 33-458): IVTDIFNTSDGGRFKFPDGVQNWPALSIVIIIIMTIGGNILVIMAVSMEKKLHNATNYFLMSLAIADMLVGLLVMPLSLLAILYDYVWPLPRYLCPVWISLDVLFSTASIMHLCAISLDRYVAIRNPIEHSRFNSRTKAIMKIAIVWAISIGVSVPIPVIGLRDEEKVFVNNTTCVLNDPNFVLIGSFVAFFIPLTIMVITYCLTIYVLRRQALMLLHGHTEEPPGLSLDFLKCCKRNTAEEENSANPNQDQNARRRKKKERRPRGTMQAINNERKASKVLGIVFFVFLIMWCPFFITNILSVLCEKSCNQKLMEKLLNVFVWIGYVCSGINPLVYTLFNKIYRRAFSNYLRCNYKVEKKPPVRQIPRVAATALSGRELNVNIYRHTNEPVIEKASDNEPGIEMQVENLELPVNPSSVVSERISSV

Sequence of 5-HT2A receptors (P28223 whole entry): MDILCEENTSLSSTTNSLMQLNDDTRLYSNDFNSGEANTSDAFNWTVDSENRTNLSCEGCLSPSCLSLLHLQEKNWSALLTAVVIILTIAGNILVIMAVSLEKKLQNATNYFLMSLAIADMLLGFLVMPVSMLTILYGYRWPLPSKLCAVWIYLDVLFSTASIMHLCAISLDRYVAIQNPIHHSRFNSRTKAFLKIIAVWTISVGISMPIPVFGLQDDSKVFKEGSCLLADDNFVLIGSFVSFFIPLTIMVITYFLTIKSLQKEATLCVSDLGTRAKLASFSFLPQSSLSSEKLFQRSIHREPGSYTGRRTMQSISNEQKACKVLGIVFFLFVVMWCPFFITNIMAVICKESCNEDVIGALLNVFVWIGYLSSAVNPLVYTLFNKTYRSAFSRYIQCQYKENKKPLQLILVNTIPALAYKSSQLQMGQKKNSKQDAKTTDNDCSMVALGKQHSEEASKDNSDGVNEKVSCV

| pKi [1] | SMILES | selectivity over 5-HT2A receptors (5-HT2A receptors) | selectivity over 5-HT2B receptors (5-HT2B receptors) |
| --- | --- | --- | --- |
|  | COc1cc(OC)c(C(=O)CCCCN2CCC3(CC2)NC(=O)NC3=O)cc1NS(=O)(=O)c1ccc(C(F)(F)F)cc1 [RS 102221, 8-[5-(2,4-Dimethoxy-5-(4-trifluoromethylphenylsulphonamido)phenyl-5-oxopentyl]-1,3,8-triazaspiro[4.5]decane-2,4-dione hydrochloride] | 100 fold | 100 fold |
| 6.9 | Cl.Cn1ccc2cc(NC(=O)Nc3cccnc3)ccc21 [SB 200646A, N-(1-methyl-5-indolyl)-N′-(3-pyridyl) urea hydrochloride] |  |  |
|  | Cc1cc2c(cc1Cl)N(C(=O)Nc1ccc(Oc3cccnc3C)nc1)CC2 [SB 242084, 6-chloro-5-methyl-N-{6-[(2-methylpyridin-3-yl)oxy]pyridin-3-yl}indoline-1-carboxamide] | 158 fold | 100 fold |
